Reference: US11617758B2, “Emulsion formulations” (Marius Pharmaceuticals LLC, priority 2013, dated 2023)
≈ marks a conversion by molar mass, not a printed value. Like-named read-outs stand apart in the source and are kept apart here.

Columns and labels:
[1] = TU solubility in various solubilizers; settings: testosterone undecanoate dissolved in the named vehicle
[2] = cited from earlier work
[3] = cited from earlier work; remark: listed apart in the source
[4] = test system: absorption of cholesterol; settings: 1 g ingested, meal containing 500 mg of cholesterol; cited from earlier work
[5] = 200 mg oral twice daily, cited from earlier work
[6] = test system: plasma lipids; settings: interesterified with margarine, mild hypercholesteremia; cited from earlier work

Row | SMILES | TU Solubility (mg/g) at 37 C. [1] [mg/g] | also measured
1 | CCCCCCCCCCCCCCCC(=O)OC(C)C [Crodamol IPP (isopropyl palmitate), isopropyl palmitate] | 215 | –
2 | CC(C)CCC[C@@H](C)[C@H]1CC[C@H]2[C@@H]3CC=C4C[C@@H](O)CC[C@]4(C)[C@H]3CC[C@]12C [Cholesterol] | – | water solubility [2]: ~0.01 µg/mL (≈ 0.0259 µM)
3 | Cc1c(C)c2c(c(C)c1O)CCC(C)(CCCC(C)CCCC(C)CCCC(C)C)O2 (racemic) [dl-alpha-tocopherol] | 527 | –
4 | CN1CCCC1=O [N-methyl pyrolidone] | >500 | –
5 | CCCCCCCC/C=C\CCCCCCCC(=O)O [Oleic acid] | 405 | –
6 | CCCCC/C=C\C/C=C\CCCCCCCC(=O)OCC [Ethyl linoleate] | 230 | –
7 | C[C@]12CC[C@H]3[C@@H](CCC4=CC(=O)CC[C@@]43C)[C@@H]1CC[C@@H]2O [testosterone] | – | oral bioavailability ([3]; dosed as a suspension in oil): 1%; circulating fraction bound to sex hormone binding globulin and albumin ([3]; in vivo): > 98%; plasma half-life ([3]; in vivo): 10 to 30 min
8 | CCCCCCCCCCC(=O)O[C@H]1CC[C@H]2[C@@H]3CCC4=CC(=O)CC[C@]4(C)[C@H]3CC[C@]12C [TU, testosterone undecanoate] | – | oral bioavailability ([3]; dosed with normal fat meal (30% calories from fat), solution of TU in oleic acid): about 7%; fraction absorbed via the intestinal lymphatic system ([3]; in vivo): More than 80%
9 | CC[C@H](CC[C@@H](C)[C@H]1CC[C@H]2[C@@H]3CC=C4C[C@@H](O)CC[C@]4(C)[C@H]3CC[C@]12C)C(C)C [ß-sitosterol] | – | reduction of absorption of cholesterol [4]: 42%
10 | CCCCCCCC/C=C\CCCCCCCC(=O)OCC(COC(=O)CCCCCCC/C=C\CCCCCCCC)OC(=O)CCCCCCC/C=C\CCCCCCCC [Glyceryl trioleate (Capmul GTO), Glyceryl trioleate] | 154 | –
11 | C[C@]12CC[C@H]3[C@@H](CCC4=CC(=O)CC[C@@]43C)[C@@H]1CC[C@@H]2O [micronized testosterone, testosterone] | – | time of total serum testosterone within the normal range ([5]; two doses): greater than 12 hours; time at desired level of serum testosterone for each peak [5]: about 4 hours
12 | CCCCCCCCCCCCCC(=O)OC(C)C [Crodamol IPM (isopropyl myristate), isopropyl myristate] | 295 | –
13 | CC[C@H](CC[C@@H](C)[C@H]1CC[C@H]2[C@@H]3CC[C@H]4C[C@@H](O)CC[C@]4(C)[C@H]3CC[C@]12C)C(C)C [sitostanol] | – | mean 1-year reduction in plasma cholesterol [6]: 10.2%
14 | CCOCCOCCO [Transcutol HP, diethylene glycol monoethyl ether] | 180 | –
15 | CCCCCCCC/C=C\CCCCCCCC(=O)OCC [Crodamol EO (ethyl oleate), ethyl oleate] | 221 | –
16 | CC/C=C\C/C=C\C/C=C\CCCCCCCC(=O)O [Linolenic acid] | 162 | –
17 | CCCCC/C=C\C/C=C\CCCCCCCC(=O)O [Linoleic acid] | 391 | –
18 | CCCCCC[C@@H](O)C/C=C\CCCCCCCC(=O)O [Ricinoleic acid] | 244 | –
